Assay results from patent US6620916B1, “Modified physiologically active proteins and medicinal compositions containing the same” (Ajinomoto Co., Inc., priority 1996, dated 2003).
Entries after “also recorded” stand apart in the source; their conditions may differ.

Columns and labels:
ASGR = biological target: T1, ASGR (Mus musculus, UniProt P24721+P34927); assay: Hepatocyte binding test with 125I-labeled ligands, Scatchard analysis; details: mouse hepatocytes, 4° C., 2 hours
T1 construct: endogenous in cells; host or cells: primary hepatocytes from C57BL/6 mice (7W, male)
T1 sequence (P34927 1-284): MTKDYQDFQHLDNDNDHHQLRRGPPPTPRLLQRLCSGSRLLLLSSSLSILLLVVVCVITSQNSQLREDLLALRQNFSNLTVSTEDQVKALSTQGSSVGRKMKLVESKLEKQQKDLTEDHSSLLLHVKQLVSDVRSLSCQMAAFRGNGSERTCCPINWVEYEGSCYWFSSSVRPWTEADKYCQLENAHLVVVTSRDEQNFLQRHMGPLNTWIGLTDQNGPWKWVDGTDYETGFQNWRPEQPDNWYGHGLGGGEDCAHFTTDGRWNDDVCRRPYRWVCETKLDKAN
T1 sequence (P24721 1-301): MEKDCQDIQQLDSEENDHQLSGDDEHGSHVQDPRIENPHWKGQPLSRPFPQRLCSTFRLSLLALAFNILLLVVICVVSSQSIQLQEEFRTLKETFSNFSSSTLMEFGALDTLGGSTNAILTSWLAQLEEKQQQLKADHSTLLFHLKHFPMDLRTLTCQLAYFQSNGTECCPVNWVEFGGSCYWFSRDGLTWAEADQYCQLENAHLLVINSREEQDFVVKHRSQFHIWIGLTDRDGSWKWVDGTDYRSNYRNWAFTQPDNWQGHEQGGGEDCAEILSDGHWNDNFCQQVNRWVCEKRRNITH
Protocol: The test for binding of a modified product to hepatocytes was conducted using mouse-separated hepatocytes prepared by the collagenase reflux method which is a modification of the method of Berry et al. (M. N. Berry et al., J. Cell Biol., 43, 506-520 (1969)). That is, seven mice (C57BL/6, 7W, male) were refluxed with a collagenase (type I, supplied by Wako Pure Chemical Industries, Ltd.) and each liver thereof was then severed. Each liver was filtered using a cell filter. Hepatocytes were then collected through centrifugation at a low rate (50 g×1 min), and incubated for from 1 to 4 hours in a D-MEM medium containing 10% FBS (supplied by Gibco, containing 100 U/ml of penicillin, 100 μg/ml of streptomycin and 50 μg/ml of gentamicin) using a tissue culture dish of 150 mm (supplied by Iwaki Garasu K.K.). […]
The hepatocyte binding test was conducted by the method of Chang et al. (T. Chang et al., BBA 942. 57-64 (1988)). […] Thereafter, the radioactivity by the non-specific binding was subtracted from the radioactivity of 0.8 ml of 1 ml of the 0.1 N NaOH solution containing 0.5% SDS, and the radioactivity of the total amount thereof was calculated from the above-obtained value. The thus-calculated value was defined as an amount of a bound fraction. […] The total protein amount of the cells was calculated by the Lorry method using 0.1 ml of the solution. […]

[1] = tested on: mouse-separated hepatocytes; assay: Uptake of 125I-labeled modified product into hepatocytes; type: cell-based; details: 24 nM, 37° C.
Protocol: The test for uptake into hepatocytes was also conducted according to the method of Chang et al (T. Chang et al., BBA 942. 57-64 (1988)). The cells which were approximately in the almost confluent state were washed once with a D-MEM medium (pH 7.4) containing 0.1% BSA and 10 mM Hepes, and the buffer was added thereto. The mixture was incubated in 5% CO2 at 37° C. for 30 minutes. […] On the other hand, the non-specific uptake was conducted by adding 100 mM N-acetylgalactosamine in each of the labeled solutions. Each plate incubated was moved on an ice bath after the reaction. A part of the medium was sampled, and a D-PBS solution (free from Ca^2+ and Mg^2+) containing 20 mM EGTA cooled at 4° C. was added thereto. The mixture was allowed to stand for 5 minutes. This washing was repeated twice. Further, the plate was washed once with a D-PBS solution (free from Ca^2+ and Mg^2+) cooled, and then allowed to stand at −20° C. for 30 minutes or more. The radioactivity by the non-specific binding was subtracted from the radioactivity of 0.8 ml of 1 ml of the 0.1 N NaOH solution containing 0.5% SDS in each well, and the radioactivity of the total amount thereof was calculated from the above-obtained value. The thus-calculated value was defined as an amount of an uptake fraction. Meanwhile, a value obtained by subtracting the radioactivity by the non-specific degradation from the radioactivity of the total trichloroacetic acid-soluble fraction in the medium was defined as an amount of a degradation fraction. The uptake tast was conducted with each point of n=3. The total protein amount of the cells was calculated by the Lorry method with respect to 0.1 ml of the solution.

Molecule | dissociation constant (Kd1) of high affinity site (ASGR) | time to saturation of uptake [1] [h] | degradation component ([1]; 0-4 hours) | uptake component in hepatocytes ([1]; 0-4 hours)
CC(=O)NC1C(OCCOCCOCCNC(=O)CCC(NC(=O)CCC(NC(=O)CCCCCNC(=O)C(Cc2ccc(O)cc2)NC(=O)OC(C)(C)C)C(=O)NCCOCCOCCOC2OC(CO)C(O)C(O)C2NC(C)=O)C(=O)NCCOCCOCCOC2OC(CO)C(O)C(O)C2NC(C)=O)OC(CO)C(O)C1O (centres unmarked) [(GalNAc)3-Tyr-Boc] | in the order level of multi-ten nM; also recorded: lower than that of (Gal)3-Tyr-Boc |  |  | 
CC(C)(C)OC(=O)NC(Cc1ccc(O)cc1)C(=O)NCCCCCC(=O)NC(CCC(=O)NC(CCC(=O)NCCOCCOCCOC1OC(CO)C(O)C(O)C1O)C(=O)NCCOCCOCCOC1OC(CO)C(O)C(O)C1O)C(=O)NCCOCCOCCOC1OC(CO)C(O)C(O)C1O (centres unmarked) [(Gal)3-Tyr-Boc] | in the order level of multi-ten nM |  |  | 
ASOR: asialoorosomucoid produced from human orosomucoid, natural ligand of ASGR |  | 1 | gradually increased with the lapse of time | observed after 30 minutes of the incubation
